The test deals with BDF1 mice, colon carcinoma 38 sc, T/C %. Nature of the test: NCI In Vivo Anticancer Drug Screen. Data for tumor model Colon Carcinoma 38 (subcutaneous) in B6D2F1 (BDF1) mice. Particulars: endpoint: median tumor weight (est.), higher = larger tumour. The method, boiled down: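 Mice with transplanted tumors are treated with compound or vehicle. Survival or tumor size is then measured in both groups. The ratio of treated to control gives the reported figure.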

Setting [1] is: dose: 12.5 mg/kg/injection, schedule: Q07DX002 (ip), vehicle: saline with Tween-80.
Setting [2] is: dose: 25.0 mg/kg/injection, schedule: Q07DX002 (ip), vehicle: saline with Tween-80.
Where [3] appears, read: dose: 50.0 mg/kg/injection, schedule: Q07DX002 (ip), vehicle: saline with Tween-80.
[4] abbreviates: dose: 200.0 mg/kg/injection, schedule: Q07DX002 (ip), vehicle: saline with Tween-80.
Setting [5] is: dose: 100.0 mg/kg/injection, schedule: Q07DX002 (ip), vehicle: saline with Tween-80.
[6] abbreviates: dose: 400.0 mg/kg/injection, schedule: Q07DX002 (ip), vehicle: saline with Tween-80.
Where [7] appears, read: dose: 25.0 mg/kg/injection, schedule: Q07DX002 (ip), vehicle: Klucel (hydroxypropylcellulose) (HPC).
The mark [8] stands for this setting: dose: 50.0 mg/kg/injection, schedule: Q07DX002 (ip), vehicle: Klucel (hydroxypropylcellulose) (HPC).
[9] abbreviates: dose: 100.0 mg/kg/injection, schedule: Q07DX002 (ip), vehicle: Klucel (hydroxypropylcellulose) (HPC).
Where [10] appears, read: dose: 200.0 mg/kg/injection, schedule: Q07DX002 (ip), vehicle: Klucel (hydroxypropylcellulose) (HPC).
[11] abbreviates: dose: 400.0 mg/kg/injection, schedule: Q07DX002 (ip), vehicle: Klucel (hydroxypropylcellulose) (HPC).
Where [12] appears, read: dose: 12.5 mg/kg/injection, schedule: Q07DX002 (ip), vehicle: Klucel (hydroxypropylcellulose) (HPC).

Experimental findings from PubChem BioAssay AID212 (DTP/NCI, 2004) are described below.

The structures appear in SMILES notation. Several values for one entry are separate records, joined by “and”; a condition that tells them apart may be missing. Identical values can stand only once. Records with an inconclusive call do not appear.

For the compound `Cc1cc2c(cc1C)C(=O)c1c(O)c3c(c(O)c1C2=O)C[C@@](O)(C(=O)CO)C[C@@H]3OC1CC(N)C(O)C(C)O1` (stereo not given in full), the T/C (dose: 4.75 mg/kg/injection, schedule: Q07DX002 (ip), vehicle: distilled water + Tween-80) was 51 % of control; the T/C (dose: 6.33 mg/kg/injection, schedule: Q07DX002 (ip), vehicle: distilled water + Tween-80) is 65 % of control; the T/C (dose: 8.44 mg/kg/injection, schedule: Q07DX002 (ip), vehicle: distilled water + Tween-80) was 28 % of control; the T/C (dose: 11.25 mg/kg/injection, schedule: Q07DX002 (ip), vehicle: distilled water + Tween-80) is 23 % of control; the T/C (dose: 15.0 mg/kg/injection, schedule: Q07DX002 (ip), vehicle: distilled water + Tween-80) is 17 % of control.
As to `Nc1ncnc2c(C3OC(CO)C(O)C3O)[nH]nc12` (stereo not given), the T/C (dose: 15.0 mg/kg/injection, schedule: Q07DX002 (ip), vehicle: suspension in saline) is 193 % of control; the T/C (dose: 30.0 mg/kg/injection, schedule: Q07DX002 (ip), vehicle: suspension in saline) was 201 % of control; the T/C (dose: 60.0 mg/kg/injection, schedule: Q07DX002 (ip), vehicle: suspension in saline) is 168 % of control; the T/C (dose: 120.0 mg/kg/injection, schedule: Q07DX002 (ip), vehicle: suspension in saline) is 150 % of control.
As for `CN=S(=O)(OCCCCCOS(=O)(=NC)c1ccccc1)c1ccccc1` (stereo not given), the T/C is, setting by setting: under setting [1], 58 % of control; under setting [2], 74 % of control; under setting [3], 69 % of control; under setting [4], 59 % of control.
Take `CCC(C)(OC(C)=O)C(=O)OC1C(=O)OC2CC3C(C)=CC(O)C(O)C3(C)C3C4(O)OCC23C1C(C)C4O` (stereo not given): the T/C by setting is: (dose: 0.12 mg/kg/injection, schedule: Q07DX002 (ip), vehicle: saline + alcohol) 80 % of control; (dose: 0.25 mg/kg/injection, schedule: Q07DX002 (ip), vehicle: saline + alcohol) 48 % of control; (dose: 0.5 mg/kg/injection, schedule: Q07DX002 (ip), vehicle: saline + alcohol) 79 % of control; (dose: 1.0 mg/kg/injection, schedule: Q07DX002 (ip), vehicle: saline + alcohol) 43 % of control; (dose: 2.0 mg/kg/injection, schedule: Q07DX002 (ip), vehicle: saline + alcohol) 75 % of control; (dose: 4.0 mg/kg/injection, schedule: Q07DX002 (ip), vehicle: saline + alcohol) 105 % of control.
As for `O=C1C(=O)c2ccccc2C(O)=C1CC=C(Cl)Cl`, the T/C runs as follows: (dose: 25.0 mg/kg/injection, schedule: Q07DX002 (ip), vehicle: other) 81 % of control; (dose: 50.0 mg/kg/injection, schedule: Q07DX002 (ip), vehicle: other) 90 % of control; (dose: 100.0 mg/kg/injection, schedule: Q07DX002 (ip), vehicle: other) 124 % of control; (dose: 200.0 mg/kg/injection, schedule: Q07DX002 (ip), vehicle: other) 190 % of control.
Regarding `O=C1NC(O)c2ccccc2O1` (stereo not given), the T/C was 93 % of control under setting [2]; 64 % of control (dose: 25.0 mg/kg/injection, schedule: Q07DX002 (ip), vehicle: suspension in saline); 90 % of control under setting [3]; 113 % of control and 93 % of control (dose: 50.0 mg/kg/injection, schedule: Q07DX002 (ip), vehicle: suspension in saline); 75 % of control under setting [5]; 60 % of control and 70 % of control (dose: 100.0 mg/kg/injection, schedule: Q07DX002 (ip), vehicle: suspension in saline). Further, the T/C is, setting by setting: under setting [4], 69 % of control; under setting [6], 82 % of control.
With `Cc1cc2c(C(C)C)c(O)c(O)c(C=O)c2c(O)c1-c1c(C)cc2c(C(C)C)c(O)c(O)c(C=O)c2c1O`, the T/C reads like this: (dose: 1.5 mg/kg/injection, schedule: Q07DX002 (ip), vehicle: saline with Tween-80) 117 % of control; (dose: 3.0 mg/kg/injection, schedule: Q07DX002 (ip), vehicle: saline with Tween-80) 97 % of control; (dose: 6.0 mg/kg/injection, schedule: Q07DX002 (ip), vehicle: saline with Tween-80) 107 % of control; (dose: 12.0 mg/kg/injection, schedule: Q07DX002 (ip), vehicle: saline with Tween-80) 53 % of control; (dose: 24.0 mg/kg/injection, schedule: Q07DX002 (ip), vehicle: saline with Tween-80) 96 % of control.
On to `CC[C@]1(O)C[C@H]2CN(CCc3c([nH]c4ccccc34)[C@@](C(=O)OC)(c3cc4c(cc3OC)N(C=O)[C@H]3[C@@](O)(C(=O)OC)[C@H](OC(C)=O)[C@]5(CC)C=CCN6CC[C@]43[C@@H]65)C2)C1`, for which the T/C by setting is: (dose: 0.01 mg/kg/injection, schedule: Q07DX002 (ip), vehicle: saline) 123 % of control; (dose: 0.03 mg/kg/injection, schedule: Q07DX002 (ip), vehicle: saline) 94 % of control; (dose: 0.06 mg/kg/injection, schedule: Q07DX002 (ip), vehicle: saline) 95 % of control; (dose: 0.12 mg/kg/injection, schedule: Q07DX002 (ip), vehicle: saline) 54 % of control; (dose: 1.0 mg/kg/injection, schedule: Q07DX002 (ip), vehicle: saline) 96 % of control and 106 % of control; (dose: 4.0 mg/kg/injection, schedule: Q07DX002 (ip), vehicle: saline) 43 % of control and 63 % of control.
For the compound `C=C(C)C(=NC(C)(C)C)Nc1ccccc1`, the T/C runs as follows: under setting [1], 100 % of control; under setting [2], 101 % of control; under setting [3], 103 % of control; under setting [4], 108 % of control; under setting [6], 100 % of control.
With `C=C(C)C(=O)OC1C/C(CO)=C\C(O)C/C(C)=C/C2OC(=O)C(=C)C21` (stereo not given), the T/C is 105 % of control (dose: 2.5 mg/kg/injection, schedule: Q07DX002 (ip), vehicle: saline + alcohol); 117 % of control (dose: 5.0 mg/kg/injection, schedule: Q07DX002 (ip), vehicle: saline + alcohol); 120 % of control (dose: 20.0 mg/kg/injection, schedule: Q07DX002 (ip), vehicle: saline + alcohol); 119 % of control (dose: 40.0 mg/kg/injection, schedule: Q07DX002 (ip), vehicle: saline + alcohol).
As to `COCC1OC2OC3C(COC)OC(OC4C(COC)OC(OC5C(COC)OC(OC6C(COC)OC(OC7C(COC)OC(OC8C(COC)OC(OC1C(O)C2O)C(O)C8O)C(O)C7O)C(O)C6O)C(O)C5O)C(O)C4O)C(O)C3O` (stereo not given) (tested in a mixture with another compound), the T/C is, setting by setting: under setting [7], 72 % of control; under setting [8], 68 % of control; under setting [9], 53 % of control; under setting [10], 69 % of control; under setting [11], 95 % of control.
With `O=[N+]([O-])/C=C\c1ccc2c(c1)OCO2`, the T/C is 364 % of control under setting [12]; 364 % of control under setting [7]; 64 % of control and 71 % of control (dose: 25.0 mg/kg/injection, schedule: Q07DX003 (ip), vehicle: Klucel (hydroxypropylcellulose) (HPC)); 185 % of control under setting [8]; 93 % of control under setting [9]; 88 % of control and 92 % of control (dose: 100.0 mg/kg/injection, schedule: Q07DX003 (ip), vehicle: Klucel (hydroxypropylcellulose) (HPC)). In addition, the T/C was 77 % of control under setting [10]; 56 % of control (dose: 200.0 mg/kg/injection, schedule: Q07DX003 (ip), vehicle: Klucel (hydroxypropylcellulose) (HPC)); 102 % of control under setting [11].
Turning to `Cn1cnc([N+](=O)[O-])c1S(=O)(=O)NCN1CCOCC1`, the T/C under setting [9] is 102 % of control and 104 % of control.
As for `C1CCC2OCCOCCOC3CCCCC3OCCOCCOC2C1` (stereo not given), the T/C (dose: 3.12 mg/kg/injection, schedule: Q07DX002 (ip), vehicle: Klucel (hydroxypropylcellulose) (HPC)) was 210 % of control and 96 % of control; the T/C (dose: 6.25 mg/kg/injection, schedule: Q07DX002 (ip), vehicle: Klucel (hydroxypropylcellulose) (HPC)) is 176 % of control; the T/C under setting [12] was 85 % of control; the T/C under setting [8] was 85 % of control.
For `O=S(=O)(N=N/C=C1\C=CC=CN1O)c1cccs1`, the T/C under setting [1] was 85 % of control; the T/C under setting [2] is 108 % of control and 98 % of control; the T/C under setting [3] is 92 % of control and 100 % of control; the T/C under setting [5] is 84 % of control and 99 % of control; the T/C under setting [6] was 67 % of control.
